Measured values reported in patent US20070004803A1, “Compounds and methods for use in treating neoplasia and cancer based upon inhibitors of isoprenylcysteine methyltransferase” (Purdue Research Foundation, priority 2003, published 2007).
pIC50, pKi: −log10 of the molar value.

Experiments:
[1] = molecular target: T1, Saccharomyces cerevisiae Icmt (Saccharomyces cerevisiae, UniProt P32584); experiment: In vitro vapor diffusion methyltransferase assay, AFC analogues as substrates; type: biochemical; settings: Relative velocity (compared to AFC) at 125 μM; substrate ability
T1 construct: A 734 bp EagI-SacII fragment, which contained the gene STE14, was amplified from pSM187; made in house; host or cells: Saccharomyces cerevisiae strain CH2704 (plasmid pCHH10m3N-STE14 in the Ste14p-lacking strain SM1188); membrane fraction
T1 sequence (P32584 1-239): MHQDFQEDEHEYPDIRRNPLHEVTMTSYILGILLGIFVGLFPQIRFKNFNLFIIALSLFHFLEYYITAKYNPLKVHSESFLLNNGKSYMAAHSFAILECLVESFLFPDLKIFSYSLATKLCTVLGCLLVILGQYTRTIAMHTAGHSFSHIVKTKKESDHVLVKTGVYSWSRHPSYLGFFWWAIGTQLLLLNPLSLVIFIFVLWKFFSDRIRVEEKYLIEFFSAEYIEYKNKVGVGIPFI
Experimental: Previous studies in this laboratory have focused on the isoprenoid substrate specificity of FTase. […] These isoprenoid moieties were chosen in part because the corresponding FPP analogues are alternative substrates for FTase, and can thus be readily incorporated into peptides and proteins. The assays were performed using overexpressed, reconstituted recombinant Saccharomyces cerevisiae Icmt.
(§1) Isolation of Membrane Fraction from Yeast Cells—Mid-log phase yeast cells (2.0-3.0 OD600/mL), grown in SC-URA, media, were harvested by centrifugation at 3500×g for 10 minutes at 4° C., washed with 10 mM NaN3, and resuspended in lysis buffer (0.3 M sorbitol, 10 mM Tris-HCl pH 7.5, 0.1 M NaCl, 5 mM MgCl2, 1% aprotinin, 10 μg/mL leupeptin, 10 μg/in L pepstatin A, 10 μg/mL chymostatin, 10 μg/mL bestatin, 1 mM dithiothreitol, and 2 mM AEBSF) to a final concentration of 800 OD600/mL. After a 15 min incubation on ice, the cells were frozen and thawed twice in liquid N2. The cells were then lysed by passing the mixture twice through a French press. The resultant mixture was centrifuged at 500×g to remove whole cells and other particulate. The supernatant was then treated with 50 U/mL micrococcal nuclease followed by centrifugation at 150,000×g in a Beckman L5 50B centrifuge (45 Ti rotor) for 90 minutes at 4° C., to pellet the membrane fraction. The pellet was resuspended in lysis buffer containing 10% glycerol, aliquoted, and stored at −80° C. Membrane protein concentration was determined using Coomassie Plus Protein Assay Reagent (Pierce Biotechnology) according to the manufacturers instructions, and compared to a BSA standard curve prepared by the same procedure. Protein samples were analyzed by immunoblot analysis and in vitro vapor diffusion methyltransferase assay as described elsewhere.
(§2) In vitro vapor diffusion methyltransferase assay—Methyltrasferase assays were performed in a total volume of 60 μL and a final Tris-HCl concentration of 100 mM, pH 7.5. All reactions contained 20 μM S-adenosyl-[^14C-methyl]-methionine (SAM) and 5 μg of membrane protein from the His-Ste14p overexpressing strain CH2704. Substrate curves were generated by varying the amount of compound in each reaction. […] The 60 μL reactions were incubated at 30° C. for 30 minutes. The reaction was stopped with the addition of 50 μL of 1M NaOH/1% SDS. 100 μL of this mixture is then spotted on folded filter paper (5.5 cm×1.5 cm) and lodged in the neck of a scintillation vial containing 10 mL of scintillation fluid. Hydroxide ion forms a tetrahedral intermediate with the newly formed ^14C-methyl ester on the methyl acceptor. This intermediate then eliminates ^14C-methanol, which diffuses into the scintillation fluid below. The filters were pulled out after 2-3 hours, the vials were shaken well and counted in a liquid scintillation analyzer.

[2] = molecular target: T1, Saccharomyces cerevisiae Icmt; experiment: In vitro vapor diffusion methyltransferase assay, inhibition of AFC methylation; type: biochemical; settings: for Icmt inhibitory ability (in words): inhibition of AFC methylation; for pIC50: inhibition curves in the presence of 33 μM AFC
Experimental: Previous studies in this laboratory have focused on the isoprenoid substrate specificity of FTase. We have discovered analogues that are effective alternative substrates, and compounds that are potent inhibitors. […] In the initial study, six isoprenoid-modified analogues (2-7, Chart 1, below) of the minimal Icmt substrate AFC 1 were prepared and evaluated as substrates and as inhibitors of the enzyme. These isoprenoid moieties were chosen in part because the corresponding FPP analogues are alternative substrates for FTase, and can thus be readily incorporated into peptides and proteins. The assays were performed using overexpressed, reconstituted recombinant Saccharomyces cerevisiae Icmt.
as §1
as §2, with “reaction. Inhibition curves were generated by varying the amount of compound in each reaction while in the presence of 33 μM N-acetyl-S-farneslylcysteine (AFC).” for “reaction.”

| Structure (SMILES) | Icmt krel [1] | other results |
| --- | --- | --- |
| CC(=O)N[C@@H](CSCC=C(C)CCC=C(C)CCC=C(C)C)C(=O)O [Compound 1, N-acetyl-S-farneslylcysteine, reference compound] | 100 | – |
| CC(=O)N[C@@H](CSC/C=C(\CC=C(C)C)CC/C=C(\C)CCC=C(C)C)C(=O)O [Compound 3, N-Acetyl-S-(3-(3-methylbut-2-enyl)-7,11-dimethyldodeca-2(Z),6(E),10-trien-1-yl)-L-cysteine] | 5.9 | pKi ([2]; AFC(protein)-competitive inhibition of Icmt): 4.67; Icmt inhibitory ability (in words) [2]: low micromolar inhibitor of AFC methylation; mode of action ([2]; varying AFC at constant inhibitor concentration): AFC(protein)—competitive inhibitor of Icmt |
| CC(=O)N[C@@H](CSC/C=C(/C)CC/C=C(\C)CCC=C(C)C)C(=O)O [Compound 4, N-Acetyl-S-(3,7,11-trimethyldodeca-2(Z),6(E),10-trien-1-yl)-L-cysteine] | 62.0 | – |
| CC(=O)N[C@@H](CSC/C=C(\C)CC/C=C(/C)CCC=C(C)C)C(=O)O [Compound 5, N-Acetyl-S-(3,7,11-trimethyldodeca-2(E),6(Z),10-trien-1-yl)-L-cysteine] | 19.1 | – |
| CCCCCCCCCC/C(C)=C/CSC[C@H](NC(C)=O)C(=O)O [Compound 6] | 24.2 | – |
| C=CCC(=CCSC[C@H](NC(C)=O)C(=O)O)CCC=C(C)CCC=C(C)C [Compound 8, N-Acetyl-S-(3-allyl-7,11-dimethyldodeca-2,6,10-triene-1-yl)-L-cysteine] | 18.6 | – |
| C=CCC/C(=C\CSC[C@H](NC(C)=O)C(=O)O)CC/C=C(\C)CCC=C(C)C [Compound 9, N-Acetyl-S-(3-(but-3-enyl)-7,11-dimethyldodeca-2Z,6E,10-trien-1-yl)-L-cysteine] | 35.4 | – |
| CC(=O)N[C@@H](CSC/C=C(\C)CC/C=C(\CC=C(C)C)CCC=C(C)C)C(=O)O [Compound 10, N-Acetyl-S-(7-(3-methylbut-2-enyl)-3,11-dimethyldodeca-2Z,6E,10-trien-1-yl) -L-cysteine] | 35.0 | – |
| CC(=O)N[C@@H](CSC/C=C(\CC=C(C)C)CC/C=C(\C)CC/C=C(\C)CCC=C(C)C)C(=O)O [Compound 12, N-Acetyl-S-(3-(3-methylbut-2-enyl) 7,11,15-trimethylhexadeca-2Z,6E,10E,14-tetraen-1-yl)-L-cysteine] | 50.0 | pIC50 [2]: 3.89 |
| CC(=O)N[C@@H](CSC/C=C(\C)CC/C=C(\CC=C(C)C)CC/C=C(\C)CCC=C(C)C)C(=O)O [Compound 13, N-Acetyl-S-(7-(3-methylbut-2-enyl) 3,11,15-trimethylhexadeca-2Z,6E,10E,14-tetraen-1-yl)-L-cysteine] | 16.3 | pIC50 [2]: 3.89 |
| CC(=O)N[C@@H](CSC/C=C(\CC=C(C)C)CCc1ccc(-c2ccccc2)cc1)C(=O)O [Compound 14] | 0.70 | Icmt inhibitory ability (in words) [2]: moderately effective inhibitor of Icmt |
